Counter-ions that a name gives are not always drawn.
Biological target: T1, human Glucose-dependent Insulinotropic Polypeptide Receptor (hGIPR) (Homo sapiens, UniProt P48546)
T1 sequence (P48546 22-466): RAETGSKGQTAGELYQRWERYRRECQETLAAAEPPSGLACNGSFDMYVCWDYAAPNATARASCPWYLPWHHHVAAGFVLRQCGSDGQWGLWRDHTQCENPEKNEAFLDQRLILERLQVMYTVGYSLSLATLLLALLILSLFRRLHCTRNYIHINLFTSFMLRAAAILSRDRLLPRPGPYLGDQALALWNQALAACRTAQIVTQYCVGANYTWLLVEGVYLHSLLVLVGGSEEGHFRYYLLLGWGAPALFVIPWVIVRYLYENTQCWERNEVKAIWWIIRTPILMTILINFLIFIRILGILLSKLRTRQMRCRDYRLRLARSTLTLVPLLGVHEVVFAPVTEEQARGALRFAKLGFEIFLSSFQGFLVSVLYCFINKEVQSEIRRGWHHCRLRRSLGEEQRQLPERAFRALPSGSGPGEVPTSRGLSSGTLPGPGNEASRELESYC
Test: Functional in vitro GIPR antagonist potency assay (cAMP HTRF, CHO-K1 cells stably expressing hGIPR, hGIP stimulation at about EC80)
Type: cell-based
Conditions: geometric mean, hGIP at estimated EC80, examples marked ^2: overall geometric mean of multiple forms (including salts) tested
Method: Example AA. Functional In Vitro GIPR Antagonist Potency Assay
The functional in vitro antagonist potency for test compounds was determined by monitoring intracellular cyclic adenosine monophosphate (cAMP) levels in Chinese hamster ovary (CHO)—K1 cells stably expressing the human Glucose-dependent Insulinotropic Polypeptide Receptor (hGIPR). Following agonist activation, hGIPR associates with the G-protein complex causing the Gαs subunit to exchange bound guanosine diphosphate (GDP) for guanosine triphosphate (GTP), followed by dissociation of the Gαs-GTP complex. The activated Gas subunit can couple to downstream effectors to regulate the levels of second messengers or cAMP within the cell. Thereby, determination of intracellular cAMP levels allows for pharmacological characterization. Intracellular cAMP levels are quantitated using a homogenous assay utilizing the Homogeneous Time Resolved Fluorescence (HTRF) technology from Perkin Elmer. […] The two entities compete for binding to a monoclonal anti-cAMP antibody labeled with cryptate. The specific signal is inversely proportional to the concentration of cAMP in the cells.
Test compounds were solubilized to a concentration of 30 mM in 100% dimethyl sulfoxide (DMSO). An 11-point dilution series using 1 in 3.162-fold serial dilutions was created in 100% DMSO with a top concentration of 8 mM. The serially diluted compound was spotted with an Echo Acoustic liquid handler (Beckman Coulter) into a 384-well assay plate (Corning, Cat No. 3824) at 50 nL/well with duplicate points at each concentration, at a 200× final assay concentration (FAC). The final compound concentration range in the assay was 40 μM to […], with a final DMSO concentration of 0.5%.
Frozen assay-ready vials (at 1×10^7 cells/vial) of CHO-K1 cells stably expressing the Gs-coupled human GIPR receptor (Eurofins, DiscoverX, Cat No. 95-0146C2) were thawed, counted, and resuspended in assay buffer consisting of Hank's Balanced Salt Solution (HBSS, Lonza Cat No. 10-527) containing 20 mM (4-(2-hydroxyethyl)-1-piperazineethanesulfonic acid (HEPES, Lonza, Cat No. 17-737E), 0.1% bovine serum albumin (BSA, Sigma, Cat No. A7979), and 200 μM 3-isobutyl-1-methylxanthine (IBMX, Sigma, Cat No. 15879) at a density of 4×10^5 cells/mL. Cells were added to assay plate (5 μL/well of 4×10^5 cells/mL stock for 2,000 cells/well final) containing 50 nL of 200× FAC test compound, and incubated at 37° C. (95% O2: 5% CO2) for 2 hours, with micro-clime lids (Labcyte, Cat No. LLS-0310). Following the 2-hour cell and compound incubation, a stimulation mix comprised of hGIPR agonist human glucose-dependent insulinotropic polypeptide (hGIP, full length, Sigma Cat No. G2269) in assay buffer/0.1% DMSO was added to the assay plate (5 μL/well) at an estimated EC80 FAC (based on previous hGIP agonist curves) and incubated for another 30 minutes with micro-clime lids at 37° C. (95% O2: 5% CO2), after which intracellular cAMP levels were quantified as per Perkin Elmer's protocol (5 μL of d2 and then 5 μL cryptate, incubated for 1 hour at room temperature). Emission spectra of samples were measured on a Pherastar plate reader (BMG Labtech Inc) using a HTRF protocol (excitation, 320 nm; emission, 665 nm/620 nm).
(95% O2: 5% CO2), with a micro-clime lid. Following the 2-hour cell and DMSO incubation, a hGIP concentration response curve at 2× FAC (12-point curve using 1 in 3 serial dilutions, with triplicate points at each concentration, 100 nM final top concentration) in assay buffer/1% DMSO was added (5 μL/well) and incubated for a further 30 minutes with a micro-clime lid at 37° C. (95% O2: 5% CO2), after which intracellular cAMP levels were quantified and samples measured as described previously. Experiments passed quality control if the agonist concentration used for stimulation fell between the on-the-day EC50-EC90. […]

| IC50 [µM] | Compound |
| --- | --- |
| 0.0091 | CC(C)c1ccc(NC(=O)N2CCC[C@@H]2C(=O)Nc2ccc(-c3ccc(C(=O)O)cc3)cn2)cc1 [Example 5, Ammonium 4-{6-[(1-{[4-(propan-2-yl)phenyl]carbamoyl}-D-prolyl)amino]pyridin-3-yl}benzoate] |
| 0.0065 | CC(C)c1ccc(NC(=O)N2CCC[C@@H]2C(=O)Nc2ccc(-c3ccc(C(=O)O)cc3)cc2F)cc1 [Example 6, 3′-Fluoro-4′-[(1-{[4-(propan-2-yl)phenyl]carbamoyl}-D-prolyl)amino][1,1′-biphenyl]-4-carboxylic acid] |
| 0.0081 | O=C(O)c1ccc(-c2ccc(NC(=O)[C@H]3CCCN3C(=O)Nc3ccc(C4CC4)cc3)cc2)cc1 [Example 7, Ammonium 4′-({1-[(4-cyclopropylphenyl)carbamoyl]-D-prolyl}amino)[1,1′-biphenyl]-4-carboxylate] |
| 0.15 | CC(C)c1ccc(NC(=O)N2CCC[C@@H]2C(=O)Nc2ccc(-c3ncc(C(=O)O)cn3)cc2)cc1 [Example 8, ammonium 2-{4-[(1-{[4-(propan-2-yl)phenyl]carbamoyl}-D-prolyl)amino]phenyl}pyrimidine-5-carboxylate] |
| 0.13 | CC(C)c1ccc(NC(=O)N2CCC[C@@H]2C(=O)Nc2ccc(-c3cccc(C(=O)O)n3)cc2)cc1 [Example 9, ammonium 6-{4-[(1-{[4-(propan-2-yl)phenyl]carbamoyl}-D-prolyl)amino]phenyl}pyridine-2-carboxylate] |
| 0.067 | CC(C)c1ccc(NC(=O)N2CCC[C@@H]2C(=O)Nc2ccc3cc(C(=O)O)ccc3c2)cc1 [Example 10, 6-[(1-{[4-(propan-2-yl)phenyl]carbamoyl}-D-prolyl)amino]naphthalene-2-carboxylic acid] |
| 0.18 | Cc1cc(NC(=O)[C@H]2CCCN2C(=O)Nc2ccc(C(C)C)cc2)cc2ccc(C(=O)O)nc12 [Example 11, 8-methyl-6-[(1-{[4-(propan-2-yl)phenyl]carbamoyl}-D-prolyl)amino]quinoline-2-carboxylic acid, trifluoroacetate salt] |
| 0.01 | C=C(C)c1ccc(NC(=O)N2CCC[C@@H]2C(=O)Nc2ccc(-c3ccc(C(=O)O)cc3)cc2)cc1 [Example 12, 4′-[(1-{[4-(prop-1-en-2-yl)phenyl]carbamoyl}-D-prolyl)amino][1,1′-biphenyl]-4-carboxylic acid] |
| 0.012 | O=C(O)c1ccc(-c2ccc(NC(=O)[C@H]3CCCN3C(=O)Nc3ccc(Cl)cc3)cc2)cc1 [Example 13, ammonium 4′-({1-[(4-chlorophenyl)carbamoyl]-D-prolyl}amino)[1,1′-biphenyl]-4-carboxylate] |
| 0.088 | CC(C)c1ccc(NC(=O)N2CCC[C@@H]2C(=O)Nc2ccc(-c3ccnc(C(=O)O)c3)cc2)cc1 [Example 14, ammonium 4-{4-[(1-{[4-(propan-2-yl)phenyl]carbamoyl}-D-prolyl)amino]phenyl}pyridine-2-carboxylate] |
| 0.0081 | CC(C)c1ccc(NC(=O)N2CCC[C@@H]2C(=O)Nc2c(F)cc(-c3ccc(C(=O)O)cc3)cc2F)cc1 [Example 15, 3′,5′-difluoro-4′-[(1-{[4-(propan-2-yl)phenyl]carbamoyl}-D-prolyl)amino][1,1′-biphenyl]-4-carboxylic acid] |
| 0.0037 | O=C(O)c1ccc(-c2ccc(NC(=O)[C@H]3CCCN3C(=O)Nc3ccc(C(F)(F)F)cc3)cc2)cc1 [Example 16, Ammonium 4′-[(1-{[4-(trifluoromethyl)phenyl]carbamoyl}-D-prolyl)amino][1,1′-biphenyl]-4-carboxylate] |
| 0.014 | Cc1cc(NC(=O)N2CCC[C@@H]2C(=O)Nc2ccc(-c3ccc(C(=O)O)nc3)cc2)ccc1C(F)(F)F [Example 17, 5-{4-[(1-{[3-Methyl-4-(trifluoromethyl)phenyl]carbamoyl}-D-prolyl)amino]phenyl}pyridine-2-carboxylic acid] |
| 0.015 | CC(C)c1ccc(NC(=O)N2CCC[C@@H]2C(=O)Nc2ccc(-c3ccc(C(=O)O)cc3)nc2)cc1 [Example 18, 4-{5-[(1-{[4-(Propan-2-yl)phenyl]carbamoyl}-D-prolyl)amino]pyridin-2-yl}benzoic acid] |
| 0.012 | Cc1nc(C(=O)O)ccc1-c1ccc(NC(=O)[C@H]2CCCN2C(=O)Nc2ccc(C(C)C)cc2)cc1 [Example 20, 6-Methyl-5-{4-[(1-{[4-(propan-2-yl)phenyl]carbamoyl}-D-prolyl)amino]phenyl}pyridine-2-carboxylic acid] |
| 0.011 | COc1cc(-c2ccc(NC(=O)[C@H]3CCCN3C(=O)Nc3ccc(C(C)C)cc3)cc2)ccc1C(=O)O [Example 21, 3-Methoxy-4′-[(1-{[4-(propan-2-yl)phenyl]carbamoyl}-D-prolyl)amino][1,1′-biphenyl]-4-carboxylic acid] |
| 0.062 | O=C(O)c1ccc(-c2ccc(NC(=O)[C@H]3CCCN3C(=O)Nc3ccc(C(F)(F)F)cc3)cn2)cc1 [Example 22, 4-{5-[(1-{[4-(Trifluoromethyl)phenyl]carbamoyl}-D-prolyl)amino]pyridin-2-yl}benzoic acid] |
| 0.0027 | O=C(O)c1ccc(-c2ccc(NC(=O)[C@H]3CCCN3C(=O)Nc3ccc(C4CCC4)cc3)cc2)cc1 [Example 23, 4′-({1-[(4-Cyclobutylphenyl)carbamoyl]-D-prolyl}amino)[1,1′-biphenyl]-4-carboxylic acid] |
| 0.11 | O=C(O)c1ccc(-c2cnc(NC(=O)[C@H]3CCCN3C(=O)Nc3ccc(C(F)(F)F)cc3)c(F)c2)cc1 [Example 24, 4-{5-Fluoro-6-[(1-{[4-(trifluoromethyl)phenyl]carbamoyl}-D-prolyl)amino]pyridin-3-yl}benzoic acid] |
| 0.086 | CC(C)c1ccc(NC(=O)N2CCC[C@@H]2C(=O)Nc2ncc(-c3ccc(C(=O)O)cc3)cc2F)cc1 [Example 25, 4-{5-Fluoro-6-[(1-{[4-(propan-2-yl)phenyl]carbamoyl}-D-prolyl)amino]pyridin-3-yl}benzoic acid] |
| 0.0021 | O=C(O)c1ccc(-c2ccc(NC(=O)[C@H]3CCCN3C(=O)Nc3ccc(C4CC4)c(C(F)(F)F)c3)cc2)cc1 [Example 26, 4′-[(1-{[4-Cyclopropyl-3-(trifluoromethyl)phenyl]carbamoyl}-D-prolyl)amino][1,1′-biphenyl]-4-carboxylic acid] |
| 0.0048 | Cc1nc(C(=O)O)ccc1-c1ccc(NC(=O)[C@H]2CCCN2C(=O)Nc2ccc(C(C)C)c(F)c2)cc1 [Example 27, 5-{4-[(1-{[3-Fluoro-4-(propan-2-yl)phenyl]carbamoyl}-D-prolyl)amino]phenyl}-6-methylpyridine-2-carboxylic acid] |

| Compound | IC50 [µM] |
| --- | --- |
| Cc1cc(NC(=O)N2CCC[C@@H]2C(=O)Nc2ccc(-c3ccc(C(=O)O)nc3)cc2)ccc1C(C)C [Example 19, 5-{4-[(1-{[3-Methyl-4-(propan-2-yl)phenyl]carbamoyl}-D-prolyl)amino]phenyl}pyridine-2-carboxylic acid] | 0.011 |

Source: patent publication US20240366598A1, “GLUCOSE-DEPENDENT INSULINOTROPIC POLYPEPTIDE RECEPTOR ANTAGONISTS AND USES THEREOF” (Pfizer Inc., priority 2023, published 2024)
